Patent US20080207593A1, “Antihistamine Combination” (Collegium Pharmaceutical, Inc., priority 2007, published 2008)
Where a name gives a salt, the structure may show the parent alone.

What was measured:
[1] = tested on: seasonal allergic rhinitis nasal symptoms (rhinorrhea, nasal itching, sneezing); experiment: Proof of concept clinical study: Total Nasal Symptom Score (TNSS); type: in vivo, human; details: TNSS > 4.7 subgroup
Protocol: An open-label, placebo-controlled parallel-group comparison study was conducted. The protocol used was a 1 week run-in period, with daily placebo (PLC) for all groups, and a second 2 week period for treatment. Study participants were randomized to receive at bedtime (10 pm) during the treatment period, one of the following: PLC only; Immediate Release LOR 10 mg, or Immediate Release CHL 4 mg/Immediate Release LOR 10 mg. Commercially available IR tablets of CHL and LOR were packaged into capsules and used in this study. Participants filled out patient diaries in the morning (8 am) and evening (10 pm, prior to dosing). Reflective and Instantaneous TNSSs were recorded daily. Pittsburgh Sleep Quality Index (PSQI) was scored at the end of the study.
Each symptom (rhinorrhea, nasal itching, sneezing) was scored on the following scale (Max Score=9):
0=absent symptoms (no sign/symptom evident);
1=mild symptoms (signs or symptoms clearly present but with minimal awareness, and easily tolerated);
2=moderate symptoms (definite awareness of signs or symptoms that are bothersome but tolerable); or
3=Severe symptoms (signs or symptoms that are hard to tolerate and cause interference with activities of daily living and/or sleeping).
At each time point (at 8 AM and 10 PM), symptoms were scored for Instantaneous and Reflective scores.
Inclusion criteria: male/female 18-60 years, history of seasonal allergic rhinitis for at least two years, sensitivity to ragweed or locally prevalent allergen, immunotherapy at stable dose, AM Reflective TNSS=3 on at least 5 out of 7 consecutive days during run-in.
Exclusion criteria: subjects with asthma other than mild intermittent asthma, use of antihistamines, other than study medication; use of systemic or topical corticosteroids, use of decongestants or antihistamines within 3 days of Visit 1, nasal cromolyn within 2 weeks of Visit 1, nasal or systemic corticosteroids within 28 days of Visit 1, loratadine within 10 days of Visit 1, history of sleep abnormalities, sinusitis, use of medications causing drowsiness/interfere with sleep, subjects with a known history of alcohol or drug abuse, and other standard exclusions.
2.3 Study Sites. The Study was conducted in Newport News, Va. (20 subjects), Richmond, Va. (20 subjects), New Braunfels, Tex. (25 subjects), San Antonio, Tex. (9 subjects).

[2] = tested on: seasonal allergic rhinitis; details: cited from earlier work
allergic rhinitis = details: cited from earlier work
[3] = tested on: seasonal allergic rhinitis; details: 4 mg three times per day (12 mg daily) for seven days; cited from earlier work
[4] = Baseline (1 week placebo run-in)
[5] = Change from Baseline to End-of-Treatment
[6] = End-of-Treatment, bedtime dosing

For `CCOC(=O)N1CCC(=C2c3ccc(Cl)cc3CCc3cccnc32)CC1` [Loratadine], which “AM TNSS Instantaneous Score, Max” value [1, 4] is on record?
Its value is 7.71.

What about the “AM TNSS Instantaneous Score, Mean” value [1, 4] of the same compound?
Its value is 5.58.

And the “AM TNSS Instantaneous Score, Median” value [1, 4]?
The value was 5.43.

What about the “AM TNSS Instantaneous Score, Min” value [1, 4] of the same compound?
Its value is 3.71.

And the “AM TNSS Reflective Score, Max” value [1, 4]?
The value was 8.14.

And the “AM TNSS Reflective Score, Mean” value [1, 4]?
Its value is 5.91.

What about the “AM TNSS Reflective Score, Median” value [1, 4] of the same compound?
The value was 5.07.

What about the “AM TNSS Reflective Score, Min” value [1, 4] of the same compound?
The value was 5.00.

What about the “PM TNSS Instantaneous Score, Max” value [1, 4] of the same compound?
The value was 8.83.

And the “PM TNSS Instantaneous Score, Mean” value [1, 4]?
The value was 5.70.

And the “PM TNSS Instantaneous Score, Median” value [1, 4]?
Its value is 5.21.

What about the “PM TNSS Instantaneous Score, Min” value [1, 4] of the same compound?
Its value is 3.86.

And the “PM TNSS Reflective Score, Max” value [1, 4]?
Its value is 8.50.

What about the “PM TNSS Reflective Score, Mean” value [1, 4] of the same compound?
The value was 6.10.

What about the “PM TNSS Reflective Score, Median” value [1, 4] of the same compound?
Its value is 5.59.

And the “PM TNSS Reflective Score, Min” value [1, 4]?
Its value is 4.57.

And the “PM TNSS Reflective Score, Change, Max” value [1, 5]?
The value was 1.21.

And the “PM TNSS Reflective Score, Change, Mean” value [1, 5]?
The value was −0.92.

And the “PM TNSS Reflective Score, Change, Median” value [1, 5]?
The value was −0.21.

And the “PM TNSS Reflective Score, Change, Min” value [1, 5]?
Its value is −3.45.

What about the “AM TNSS Instantaneous Score, Change, Max” value ([1]; Change from Baseline to Week 2) of the same compound?
Its value is 1.21.

And the “AM TNSS Instantaneous Score, Change, Mean” value ([1]; Change from Baseline to Week 2)?
The value was −0.74.

What about the “AM TNSS Instantaneous Score, Change, Median” value ([1]; Change from Baseline to Week 2) of the same compound?
The value was −0.83.

And the “AM TNSS Instantaneous Score, Change, Min” value ([1]; Change from Baseline to Week 2)?
Its value is −2.62.

What about the “AM TNSS Reflective Score, Change, Max” value ([1]; Change from Baseline to Week 2) of the same compound?
Its value is 1.29.

And the “AM TNSS Reflective Score, Change, Mean” value ([1]; Change from Baseline to Week 2)?
The value was −0.82.

What about the “AM TNSS Reflective Score, Change, Median” value ([1]; Change from Baseline to Week 2) of the same compound?
The value was −0.52.

What about the “AM TNSS Reflective Score, Change, Min” value ([1]; Change from Baseline to Week 2) of the same compound?
Its value is −2.79.

And the “PM TNSS Instantaneous Score, Change, Max” value ([1]; Change from Baseline to Week 2)?
The value was 1.00.

What about the “PM TNSS Instantaneous Score, Change, Mean” value ([1]; Change from Baseline to Week 2) of the same compound?
The value was −0.81.

What about the “PM TNSS Instantaneous Score, Change, Median” value ([1]; Change from Baseline to Week 2) of the same compound?
Its value is −0.21.

And the “PM TNSS Instantaneous Score, Change, Min” value ([1]; Change from Baseline to Week 2)?
The value was −3.45.

And the “PM TNSS Reflective Score, Max” value [1, 6]?
The value was 7.71.

And the “PM TNSS Reflective Score, Mean” value [1, 6]?
Its value is 5.18.

What about the “PM TNSS Reflective Score, Median” value [1, 6] of the same compound?
Its value is 5.29.

And the “PM TNSS Reflective Score, Min” value [1, 6]?
Its value is 2.14.

And the “AM TNSS Instantaneous Score, Max” value ([1]; Week 2, bedtime dosing)?
Its value is 7.36.

And the “AM TNSS Instantaneous Score, Mean” value ([1]; Week 2, bedtime dosing)?
The value was 4.83.

What about the “AM TNSS Instantaneous Score, Median” value ([1]; Week 2, bedtime dosing) of the same compound?
The value was 5.16.

And the “AM TNSS Instantaneous Score, Min” value ([1]; Week 2, bedtime dosing)?
Its value is 2.14.

What about the “AM TNSS Reflective Score, Max” value ([1]; Week 2, bedtime dosing) of the same compound?
The value was 7.43.

What about the “AM TNSS Reflective Score, Mean” value ([1]; Week 2, bedtime dosing) of the same compound?
The value was 5.08.

And the “AM TNSS Reflective Score, Median” value ([1]; Week 2, bedtime dosing)?
The value was 5.13.

What about the “AM TNSS Reflective Score, Min” value ([1]; Week 2, bedtime dosing) of the same compound?
The value was 2.21.

What about the “PM TNSS Instantaneous Score, Max” value ([1]; Week 2, bedtime dosing) of the same compound?
The value was 7.21.

What about the “PM TNSS Instantaneous Score, Mean” value ([1]; Week 2, bedtime dosing) of the same compound?
Its value is 4.89.

What about the “PM TNSS Instantaneous Score, Median” value ([1]; Week 2, bedtime dosing) of the same compound?
Its value is 5.32.

And the “PM TNSS Instantaneous Score, Min” value ([1]; Week 2, bedtime dosing)?
Its value is 2.15.

And the nocturnal symptoms ([2]; 10 mg QD for four weeks)?
Its nocturnal symptoms is “did not show any improvement”.

What about the symptom scores ([2]; 10 mg QD, first two week period and four week study overall) of the same compound?
The symptom scores was “statistically significant reduction”.

What about the 24 hour efficacy (allergic rhinitis; 10 mg once a day) of the same compound?
The 24 hour efficacy was “lack of 24 hour efficacy”.

What about the “patients with significant sedation” value (allergic rhinitis; loratadine 40 mg once daily) of the same compound?
Its value is 34.3%.

Which “patients reporting moderate or complete relief” value [3] does the source give for `CN(C)CCC(c1ccc(Cl)cc1)c1ccccn1` (stereo not drawn) [chlorpheniramine, Chlorpheniramine maleate] here?
The value was 60%.

And the patients reporting sedation [3]?
The patients reporting sedation was 19%.
